Calls of active or inactive are those of the source. No cut-off for these calls is given here.
Assays:
[1] = biological target: T1, Prostaglandin D2 receptor 2 (Homo sapiens, UniProt Q9Y5Y4); assay: Displacement of [3HPGD2 from human CRTH2 receptor expressed in CHO cell membrane after 90 mins by scintillation proximity assay; assay type: cell membranes
T1 sequence (Q9Y5Y4 whole entry): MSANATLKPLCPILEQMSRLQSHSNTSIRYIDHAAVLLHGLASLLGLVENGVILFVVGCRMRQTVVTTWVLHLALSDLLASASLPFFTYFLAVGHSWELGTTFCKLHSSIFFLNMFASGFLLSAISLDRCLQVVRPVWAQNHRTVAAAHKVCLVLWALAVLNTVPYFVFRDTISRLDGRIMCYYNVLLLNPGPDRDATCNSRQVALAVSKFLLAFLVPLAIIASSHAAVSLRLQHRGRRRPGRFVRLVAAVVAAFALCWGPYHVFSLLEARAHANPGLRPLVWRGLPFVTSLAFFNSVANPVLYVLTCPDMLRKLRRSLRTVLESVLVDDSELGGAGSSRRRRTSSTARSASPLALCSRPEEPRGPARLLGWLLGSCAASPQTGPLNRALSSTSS

[2] = biological target: T2, Prostaglandin D2 receptor 2 (Homo sapiens) (UniProt Q9Y5Y4); assay: Agonist activity at human CRTH2 receptor expressed in CHO cell membrane assessed as induction of [35S]GTPgammaS binding at 20 uM after 30 mins by microbeta scintillation counting relative to PGD2; assay type: functional, cell membranes
T2 sequence (whole entry): T1 sequence (Q9Y5Y4 whole entry)

[3] = biological target: T1, Prostaglandin D2 receptor 2; assay: Antagonist activity at human CRTH2 receptor expressed in CHO cell membrane assessed as inhibition of PGD2-induced [35S]GTPgammaS binding after 30 mins by microbeta scintillation counting; assay type: functional, cell membranes
[4] = biological target: T2, Prostaglandin D2 receptor 2 (Homo sapiens); assay: Antagonist activity at human CRTH2 receptor expressed in CHO cell membrane assessed as inhibition of PGD2-induced [35S]GTPgammaS binding at 2 uM after 30 mins by microbeta scintillation counting relative to control; assay type: functional, cell membranes
[5] = Intrinsic clearance in human liver microsomes assessed per mg protein at 1 uM up to 45 mins by LC/MS analysis; assay type: ADME, Microsome; conditions: read-out: CLH
[6] = Intrinsic clearance in rat liver microsomes assessed per mg protein at 1 uM up to 45 mins by LC/MS analysis; assay type: ADME, Microsome; conditions: read-out: CLH
Cytochrome P450 2C8 = biological target: T3, Cytochrome P450 2C8 (Homo sapiens, UniProt P10632); assay: Inhibition of human recombinant CYP2C8 incubated for 15 mins prior to substrate addition measured after 30 mins by spectrophotometry; assay type: ADME
T3 sequence (P10632 whole entry): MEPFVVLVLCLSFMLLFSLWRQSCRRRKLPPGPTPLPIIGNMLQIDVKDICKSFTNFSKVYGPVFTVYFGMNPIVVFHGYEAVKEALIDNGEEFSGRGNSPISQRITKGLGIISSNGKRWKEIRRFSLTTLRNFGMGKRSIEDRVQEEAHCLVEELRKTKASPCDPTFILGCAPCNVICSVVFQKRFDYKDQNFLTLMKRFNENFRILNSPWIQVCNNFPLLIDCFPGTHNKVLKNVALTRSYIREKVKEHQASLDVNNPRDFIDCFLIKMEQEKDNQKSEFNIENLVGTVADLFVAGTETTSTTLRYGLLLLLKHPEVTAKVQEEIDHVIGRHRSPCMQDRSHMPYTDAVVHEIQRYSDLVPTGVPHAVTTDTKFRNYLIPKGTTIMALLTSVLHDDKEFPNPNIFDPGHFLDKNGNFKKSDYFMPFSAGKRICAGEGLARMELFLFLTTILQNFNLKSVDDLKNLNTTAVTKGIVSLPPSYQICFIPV

Cytochrome P450 2C9 = Cytochrome P450 2C9 (Homo sapiens, UniProt P11712); assay: Inhibition of human recombinant CYP2C9 incubated for 15 mins prior to substrate addition measured after 30 mins by spectrophotometry; assay type: ADME
Sequence of Cytochrome P450 2C9 (P11712 whole entry): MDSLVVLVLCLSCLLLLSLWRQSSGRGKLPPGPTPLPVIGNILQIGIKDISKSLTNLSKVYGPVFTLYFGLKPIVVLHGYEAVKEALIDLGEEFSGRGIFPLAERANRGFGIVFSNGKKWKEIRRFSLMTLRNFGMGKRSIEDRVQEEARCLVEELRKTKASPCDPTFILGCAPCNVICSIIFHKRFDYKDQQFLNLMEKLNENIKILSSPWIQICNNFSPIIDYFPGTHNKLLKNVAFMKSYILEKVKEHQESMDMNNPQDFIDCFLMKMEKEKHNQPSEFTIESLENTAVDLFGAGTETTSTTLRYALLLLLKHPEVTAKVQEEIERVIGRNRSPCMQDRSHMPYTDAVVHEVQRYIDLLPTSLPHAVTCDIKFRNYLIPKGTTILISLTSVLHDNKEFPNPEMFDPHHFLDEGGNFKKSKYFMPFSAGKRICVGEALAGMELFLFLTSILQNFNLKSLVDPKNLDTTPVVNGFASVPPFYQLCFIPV

Cytochrome P450 2C19 = Cytochrome P450 2C19 (Homo sapiens, UniProt P33261); assay: Inhibition of human recombinant CYP2C19 incubated for 15 mins prior to substrate addition measured after 30 mins by spectrophotometry; assay type: ADME
Sequence of Cytochrome P450 2C19 (P33261 whole entry): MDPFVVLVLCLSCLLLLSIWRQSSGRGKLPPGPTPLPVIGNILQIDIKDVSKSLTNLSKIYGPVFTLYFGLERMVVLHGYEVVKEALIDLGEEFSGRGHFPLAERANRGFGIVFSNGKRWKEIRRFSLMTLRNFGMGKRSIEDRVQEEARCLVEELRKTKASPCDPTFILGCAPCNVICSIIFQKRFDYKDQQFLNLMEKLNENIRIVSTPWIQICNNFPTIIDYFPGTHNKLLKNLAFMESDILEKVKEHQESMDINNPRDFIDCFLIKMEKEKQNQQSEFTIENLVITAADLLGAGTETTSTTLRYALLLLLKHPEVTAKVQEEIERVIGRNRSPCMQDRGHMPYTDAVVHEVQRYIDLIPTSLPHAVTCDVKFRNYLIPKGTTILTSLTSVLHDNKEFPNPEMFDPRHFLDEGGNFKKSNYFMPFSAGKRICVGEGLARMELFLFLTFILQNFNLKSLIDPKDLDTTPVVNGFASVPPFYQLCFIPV

In the case of CCC(=O)N(Cc1ccc2c(c1)OCO2)c1cccc(-c2nnn[nH]2)c1, the Ki [1] is reported as 130 nM.
CCC(=O)N(Cc1ccc(OC)cc1)c1cc(F)cc(-c2nnn[nH]2)c1 gave a Ki [1] of 7.6 nM.
For CS(=O)(=O)c1ccc(CN(C(=O)Cc2ccccc2)c2cc(F)cc(-c3nnn[nH]3)c2)cc1, the Ki [1] was 0.9 nM, the Emax [2] was -10% and the IC50 [3] was 3.7 nM. It also gave an inhibition [4] of 94%, a microsomal CLint at 1 µM [5] of 28 µL/min/mg and a microsomal CLint at 1 µM [6] of 20 µL/min/mg. It also gave an IC50 (Cytochrome P450 2C8) of 50 nM, an IC50 (Cytochrome P450 2C9) of 290 nM and an IC50 (Cytochrome P450 2C19) of 170 nM.
In the case of Cc1ccc(CCC(=O)N(Cc2ccc(S(C)(=O)=O)cc2)c2cc(F)cc(-c3nnn[nH]3)c2)cc1, the Ki [1] is reported as 2.5 nM.
CC(C)C(=O)N(Cc1ccc(S(C)(=O)=O)cc1)c1cc(F)cc(-c2nnn[nH]2)c1 gave a Ki [1] of 17 nM.
Work on C#Cc1cccc(CN(C(C)=O)c2cc(-c3nnn[nH]3)ccc2F)c1 yielded a Ki [1] of 140 nM.
For CS(=O)(=O)c1ccc(CN(C(=O)C2CCOCC2)c2cc(F)cc(-c3nnn[nH]3)c2)cc1, the Ki [1] was 28 nM.
For CCC(=O)N(Cc1cccc(OC(C)C)c1)c1cc(F)cc(-c2nnn[nH]2)c1, the Ki [1] was 6.4 nM, the microsomal CLint at 1 µM [5] was 1700 µL/min/mg and the microsomal CLint at 1 µM [6] was 30 µL/min/mg. It also gave an IC50 (Cytochrome P450 2C8) of 470 nM, an IC50 (Cytochrome P450 2C9) of 340 nM and an IC50 (Cytochrome P450 2C19) of 900 nM.
For CC(C)CC(=O)N(Cc1ccc2c(c1)OCCO2)c1cc(-c2nnn[nH]2)ccc1F, the Ki [1] was 5.6 nM.
With CCCCC(=O)N(Cc1ccc(OC)cc1)c1cccc(-c2nnn[nH]2)c1 the Ki [1] was 50 nM, the microsomal CLint at 1 µM [5] was > 1000 µL/min/mg and the microsomal CLint at 1 µM [6] was 43 µL/min/mg. The IC50 (Cytochrome P450 2C8) was 320 nM, the IC50 (Cytochrome P450 2C9) was 840 nM and the IC50 (Cytochrome P450 2C19) was 260 nM.
In the case of CCC(=O)N(Cc1cccc(C)c1)c1cccc(-c2nnn[nH]2)c1, the Ki [1] is reported as 580 nM.
With CC(C)CC(=O)N(Cc1ccc(S(C)(=O)=O)cc1)c1cc(F)cc(-c2nnn[nH]2)c1 the Ki [1] was 3.2 nM, the Emax [2] was “inactive” and the IC50 [3] was 46 nM. For the same molecule, the inhibition [4] was 85%, the microsomal CLint at 1 µM [5] was 17 µL/min/mg and the microsomal CLint at 1 µM [6] was 17 µL/min/mg. For the same molecule, the IC50 (Cytochrome P450 2C8) was 79 nM, the IC50 (Cytochrome P450 2C9) was 1700 nM and the IC50 (Cytochrome P450 2C19) was 7500 nM.
CCCCC(=O)N(Cc1ccc2cnccc2c1)c1cccc(-c2nnn[nH]2)c1 showed a Ki [1] of 330 nM.
With CS(=O)(=O)c1ccc(CN(C(=O)c2ccncc2)c2cc(F)cc(-c3nnn[nH]3)c2)cc1 the Ki [1] was 17 nM.
Molecule CCC(=O)N(Cc1cccc(OC)c1)c1cc(F)cc(-c2nnn[nH]2)c1 has a Ki [1] of 8.2 nM, an Emax [2] of -11% and an IC50 [3] of 64 nM. It also gave an inhibition [4] of 107%.
In the case of CCC(=O)N(Cc1ccc(S(C)(=O)=O)cc1)c1cc(F)cc(-c2nnn[nH]2)c1, the Ki [1] is reported as 3.1 nM, the microsomal CLint at 1 µM [5] is reported as < 10 µL/min/mg and the microsomal CLint at 1 µM [6] is reported as < 10 µL/min/mg. For the same molecule, the IC50 (Cytochrome P450 2C8) was 54 nM, the IC50 (Cytochrome P450 2C9) was > 20000 nM and the IC50 (Cytochrome P450 2C19) was 150 nM.
For CS(=O)(=O)c1ccc(CN(C(=O)c2ccccc2)c2cc(F)cc(-c3nnn[nH]3)c2)cc1, the Ki [1] was 2.2 nM.
For CCCCC(=O)N(Cc1ccc(OC)cc1)c1cc(F)cc(-c2nnn[nH]2)c1, the Ki [1] was 3 nM.
CCCCC(=O)N(Cc1cccs1)c1cccc(-c2nnn[nH]2)c1 showed a Ki [1] of 620 nM.
With CCCCC(=O)N(Cc1ccc2c(c1)OCCO2)c1cc(F)cc(-c2nnn[nH]2)c1 the Ki [1] was 2 nM, the Emax [2] was -15% and the IC50 [3] was 2.8 nM. The inhibition [4] was 102%.
CCCCC(=O)N(Cc1ccc(OC)cc1)c1cc(Cl)cc(-c2nnn[nH]2)c1 showed a Ki [1] of 3.6 nM, an Emax [2] of -10% and an IC50 [3] of 10 nM. It also gave an inhibition [4] of 110%.
In the case of CCCCC(=O)N(Cc1ccc2c(c1)OCCO2)c1cc(-c2nnn[nH]2)ccc1F, the Ki [1] is reported as 3.3 nM.
For CCCCC(=O)N(Cc1ccc2ccccc2c1)c1cccc(-c2nnn[nH]2)c1, the Ki [1] was 39 nM.
CCC(=O)N(Cc1ccc2c(c1)OCCO2)c1cccc(-c2nnn[nH]2)c1 showed a Ki [1] of 42 nM.
In the case of CCC(=O)N(Cc1ccccc1F)c1cccc(-c2nnn[nH]2)c1, the Ki [1] is reported as 950 nM.
CCC(=O)N(Cc1cccc(F)c1)c1cccc(-c2nnn[nH]2)c1 gave a Ki [1] of 1400 nM.
CCCCC(=O)N(Cc1ccc2ccccc2c1)c1cc(-c2nnn[nH]2)ccc1F gave a Ki [1] of 18 nM.
CCC(=O)N(Cc1ccc2ccccc2n1)c1cc(F)cc(-c2nnn[nH]2)c1 gave a Ki [1] of 56 nM.
With CCCCC(=O)N(Cc1cccc(OC)c1)c1cc(F)cc(-c2nnn[nH]2)c1 the Ki [1] was 3 nM.
For CCC(=O)N(Cc1cccc(O)c1)c1cc(F)cc(-c2nnn[nH]2)c1, the Emax [2] was -17%, the inhibition [4] was 106% and the microsomal CLint at 1 µM [5] was 55 µL/min/mg. The microsomal CLint at 1 µM [6] was 10 µL/min/mg, the IC50 (Cytochrome P450 2C8) was 970 nM and the IC50 (Cytochrome P450 2C9) was 2000 nM. For the same molecule, the IC50 (Cytochrome P450 2C19) was 3700 nM.
With CCCCC(=O)N(Cc1ccc2c(c1)OCCO2)c1cc(-c2nnn[nH]2)c(F)cc1F the Ki [1] was 45 nM.
For CCCCC(=O)N(Cc1cc2ccccc2o1)c1cc(-c2nnn[nH]2)ccc1F, the Ki [1] was 7.1 nM.
CCCCC(=O)N(Cc1ccc2c(c1)OCCO2)c1cccc(CC(=O)O)c1 gave a Ki [1] of 4300 nM.
With CCCCC(=O)N(Cc1cccc(OC)c1)c1cccc(C(=O)O)c1 the Ki [1] was 8000 nM.
For CCCCC(=O)N(Cc1ccc2c(c1)OCCO2)c1cccc(-c2nnn[nH]2)c1, the Ki [1] was 7 nM, the microsomal CLint at 1 µM [5] was > 1000 µL/min/mg and the microsomal CLint at 1 µM [6] was 125 µL/min/mg. For the same molecule, the IC50 (Cytochrome P450 2C8) was 570 nM, the IC50 (Cytochrome P450 2C9) was 640 nM and the IC50 (Cytochrome P450 2C19) was 680 nM.
With CCCC(=O)N(Cc1ccc2c(c1)OCCO2)c1cccc(-c2nnn[nH]2)c1 the Ki [1] was 12 nM.
Molecule CCC(=O)N(Cc1ccccc1)c1cccc(-c2nnn[nH]2)c1 has a Ki [1] of 1800 nM.
With CCCC(=O)N(Cc1ccc2c(c1)OCCO2)c1cc(-c2nnn[nH]2)ccc1F the Ki [1] was 4.9 nM.
CS(=O)(=O)c1ccc(CN(C(=O)C2CCCC2)c2cc(F)cc(-c3nnn[nH]3)c2)cc1 gave a Ki [1] of 5.4 nM, an Emax [2] of 7% and an IC50 [3] of 57 nM. For the same molecule, the inhibition [4] was 80%, the microsomal CLint at 1 µM [5] was 92 µL/min/mg and the microsomal CLint at 1 µM [6] was 40 µL/min/mg. It also gave an IC50 (Cytochrome P450 2C8) of 220 nM, an IC50 (Cytochrome P450 2C9) of 7400 nM and an IC50 (Cytochrome P450 2C19) of 12000 nM.
In the case of CCC(=O)N(Cc1ccc2c(c1)OCCO2)c1cc(-c2nnn[nH]2)ccc1F, the Ki [1] is reported as 11 nM.
With CCC(=O)N(Cc1ccc(O)cc1)c1cc(F)cc(-c2nnn[nH]2)c1 the Ki [1] was 22 nM.
In the case of CCC(=O)N(Cc1ccc(OC)cc1)c1cccc(-c2nnn[nH]2)c1, the Ki [1] is reported as 220 nM.
Work on CCC(=O)N(Cc1cccc(OC)c1)c1cccc(-c2nnn[nH]2)c1 yielded a Ki [1] of 360 nM.
C#Cc1cccc(CN(C(=O)CCCC)c2cc(-c3nnn[nH]3)ccc2F)c1 showed a Ki [1] of 10 nM.
Work on CCC(=O)N(Cc1ccc(F)cc1)c1cccc(-c2nnn[nH]2)c1 yielded a Ki [1] of 1200 nM.
Work on CCCCC(=O)N(Cc1cccc(OC)c1)c1cccc(-c2nnn[nH]2)c1 yielded a Ki [1] of 44 nM.
Molecule CS(=O)(=O)c1ccc(CN(C(=O)c2cccnc2)c2cc(F)cc(-c3nnn[nH]3)c2)cc1 has a Ki [1] of 4 nM.
Work on CCC(=O)N(Cc1ccc(S(C)(=O)=O)cc1)c1cccc(-c2nnn[nH]2)c1 yielded a Ki [1] of 69 nM.
With CCC(=O)N(Cc1ccc(S(=O)(=O)C(F)(F)F)cc1)c1cc(F)cc(-c2nnn[nH]2)c1 the Ki [1] was 5.2 nM.

From ChEMBL document CHEMBL2034935, “Discovery of a Novel Series of CRTH2 (DP2) Receptor Antagonists Devoid of Carboxylic Acids” (ACS Med Chem Lett, 2011)
